According to ChEMBL document CHEMBL1201862, “PubChem BioAssay data set” (2004):
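Briefly, cells in 96-well plates were exposed to five compound concentrations for 48 h, and endpoints were estimated by linear interpolation. GI50: concentration for 50% inhibition of growth.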 Calls of active or inactive are those of the source. Rule as the data show it: active = GI50 up to about 1.1 µM and inactive = higher.

Tests used:
Test in all cases: DTP human tumour cell line panel, 48 h
786-0 = test system: 786-0
CAKI-1 = test system: CAKI-1
EKVX = test system: EKVX
HL-60 = test system: HL-60
KM12 = test system: KM12
Malme-3M = test system: Malme-3M
SK-MEL-2 = test system: SK-MEL-2
SN12C = test system: SN12C
SNB-19 = test system: SNB-19
SNB-75 = test system: SNB-75
SNB-78 = test system: SNB-78
TK-10 = test system: TK-10
U-251 = test system: U-251
DU-145 = test system: DU-145
Hs-578T = test system: Hs-578T
MDA-MB-231 = test system: MDA-MB-231
OVCAR-3 = test system: OVCAR-3
OVCAR-5 = test system: OVCAR-5
SF-268 = test system: SF-268
UACC-257 = test system: UACC-257

Structure (SMILES) | GI50 (786-0) | GI50 (CAKI-1) | GI50 (EKVX) | GI50 (HL-60) | GI50 (KM12) | GI50 (Malme-3M) | GI50 (SK-MEL-2) | GI50 (SN12C) | GI50 (SNB-19) | GI50 (SNB-75) | GI50 (SNB-78) | GI50 (TK-10) | GI50 (U-251) | GI50 (DU-145) | GI50 (Hs-578T) | GI50 (MDA-MB-231) | GI50 (OVCAR-3) | GI50 (OVCAR-5) | GI50 (SF-268) | GI50 (UACC-257)
Oc1cc(-c2ccc3c(c2)OCO3)nc2cc3c(cc12)OCO3 | 34.9 µM (inactive) | 64.4 µM (inactive) | > 100 µM (inactive) | 24.5 µM (inactive) | 36.1 µM (inactive) | 21.2 µM (inactive) | 31.1 µM (inactive) | 39.5 µM (inactive) | 54.3 µM (inactive) | 1.01 µM (active) | 43 µM (inactive) | 63.8 µM (inactive) | 30.5 µM (inactive) |  |  |  |  |  |  | 
COc1cc(C(c2cc3c(cc2O)OCO3)N2CCCCC2)cc(OC)c1OC (configuration not stated) | 5.86 µM (inactive) | 12.1 µM (inactive) | 18.7 µM (inactive) | 1.76 µM (inactive) | 18.2 µM (inactive) | 12.8 µM (inactive) | 15.7 µM (inactive) | 11.5 µM (inactive) | 20.6 µM (inactive) | 16.8 µM (inactive) |  | 17 µM (inactive) | 15.8 µM (inactive) | 17.5 µM (inactive) | 14 µM (inactive) | 15 µM (inactive) | 13.8 µM (inactive) | 17.8 µM (inactive) | 15.8 µM (inactive) | 12.5 µM (inactive)
CCC1(O)C(=O)OCc2c1cc1n(c2=O)Cc2c-1nc1ccccc1c2OC (configuration not stated) | < 0.01 µM (active) | < 0.01 µM (active) | 2.91 µM (inactive) | < 0.01 µM (active) | 0.167 µM (active) | 0.15 µM (active) | 2.16 µM (inactive) | < 0.01 µM (active) | < 0.01 µM (active) | < 0.0156 µM (active) | 2.13 µM (inactive) | 3.52 µM (inactive) | < 0.01 µM (active) |  |  |  | 0.257 µM (active) | 0.0711 µM (active) | < 0.01 µM (active) | 0.0575 µM (active)
CCOc1ccc(-n2c(=O)c3nn4c(=O)n(-c5ccc(OCC)cc5)c(=O)c4nn3c2=O)cc1 | 70.1 µM (inactive) | > 100 µM (inactive) | > 100 µM (inactive) | > 100 µM (inactive) | > 100 µM (inactive) | > 100 µM (inactive) | 39.4 µM (inactive) | > 100 µM (inactive) | 63 µM (inactive) | 20.3 µM (inactive) |  | > 100 µM (inactive) | > 100 µM (inactive) | > 100 µM (inactive) | 28.5 µM (inactive) | 71.8 µM (inactive) | > 100 µM (inactive) | > 100 µM (inactive) | > 100 µM (inactive) | > 100 µM (inactive)
COc1ccc(Cc2n[nH]c(Nc3ccc(Br)cc3)nc2=O)cc1OC | > 100 µM (inactive) | > 100 µM (inactive) | > 100 µM (inactive) | 57 µM (inactive) | 36.6 µM (inactive) | 47.2 µM (inactive) | 60.1 µM (inactive) | > 100 µM (inactive) | > 100 µM (inactive) | 28.9 µM (inactive) |  | > 100 µM (inactive) | > 100 µM (inactive) | > 100 µM (inactive) | 35 µM (inactive) | 50.1 µM (inactive) | > 74.3 µM (inactive) | > 100 µM (inactive) | 88.5 µM (inactive) | > 100 µM (inactive)
Cc1ccc(C(=O)NCCN(C)C)c2nc3ccccc3cc12 | 2.32 µM (inactive) | 1.79 µM (inactive) | 1.73 µM (inactive) | 1.42 µM (inactive) | 1.1 µM (active) | 2.54 µM (inactive) | 2.53 µM (inactive) | 0.809 µM (active) | 2.36 µM (inactive) | 1.52 µM (inactive) | 13.2 µM (inactive) | 1.54 µM (inactive) | 0.644 µM (active) |  |  |  | 1.32 µM (inactive) | 1.94 µM (inactive) |  | 1.3 µM (inactive)
N#C/C(=C1\SCC(=O)N1c1ccccc1)c1nc2ccccc2[nH]1 | > 100 µM (inactive) | > 100 µM (inactive) | > 100 µM (inactive) | > 100 µM (inactive) |  | > 100 µM (inactive) | > 100 µM (inactive) | > 100 µM (inactive) | > 100 µM (inactive) | > 100 µM (inactive) | > 100 µM (inactive) | > 100 µM (inactive) | > 100 µM (inactive) |  |  |  | > 100 µM (inactive) | > 100 µM (inactive) | > 100 µM (inactive) | > 100 µM (inactive)
CCN(CC)CC(C(=O)Nc1c(C)cccc1C)/C(C)=N\NC(=O)c1ccncc1 (configuration not stated) | > 100 µM (inactive) | > 100 µM (inactive) |  |  | > 100 µM (inactive) | > 100 µM (inactive) | > 100 µM (inactive) | > 100 µM (inactive) | > 100 µM (inactive) | > 100 µM (inactive) | > 100 µM (inactive) | > 100 µM (inactive) | > 100 µM (inactive) |  |  |  | > 100 µM (inactive) | > 100 µM (inactive) | > 100 µM (inactive) | > 100 µM (inactive)
C=C1C(=O)CC2C1CC(=O)/C(C)=C/CCC(C)(O)C2O (configuration not stated) | 4.55 µM (inactive) | 1.55 µM (inactive) | 18.7 µM (inactive) | 4.41 µM (inactive) | 13.8 µM (inactive) | 1.36 µM (inactive) | 0.986 µM (active) | 2.29 µM (inactive) | > 54.3 µM (inactive) | 11.8 µM (inactive) |  | 0.562 µM (active) | 10.8 µM (inactive) | 8.77 µM (inactive) | 5.4 µM (inactive) | 1.07 µM (active) | 7.16 µM (inactive) | 17.5 µM (inactive) | 18.1 µM (inactive) | 0.708 µM (active)
COc1ccc(/N=N/C(=NNC(=O)c2ccc(C)cc2)c2ccc(N(C)C)cc2)cc1 | 39.1 µM (inactive) | > 91.8 µM (inactive) | 37.7 µM (inactive) | 2.32 µM (inactive) | 30.1 µM (inactive) | 34.6 µM (inactive) | 50.8 µM (inactive) | 56.6 µM (inactive) | 61.2 µM (inactive) | 87.3 µM (inactive) |  | > 100 µM (inactive) | 63.7 µM (inactive) | 25.1 µM (inactive) | > 100 µM (inactive) | 64.4 µM (inactive) | 28.4 µM (inactive) | > 85.9 µM (inactive) | > 85.7 µM (inactive) | 33.3 µM (inactive)
O=[N+]([O-])c1cnn(C2=CNc3ccccc3N=C2)c1 | > 100 µM (inactive) |  | > 100 µM (inactive) | > 100 µM (inactive) |  | > 100 µM (inactive) | > 100 µM (inactive) | > 100 µM (inactive) | > 100 µM (inactive) | 43.8 µM (inactive) | > 100 µM (inactive) | > 100 µM (inactive) | > 100 µM (inactive) |  |  |  | > 100 µM (inactive) | > 100 µM (inactive) | > 100 µM (inactive) | > 100 µM (inactive)
CC(C)(C)CC(C)(C)NCC(O)COc1ccc(C(C)(C)c2ccc(OCC(O)CNC(C)(C)CC(C)(C)C)cc2)cc1 (configuration not stated) | 1.06 µM (active) | 1.75 µM (inactive) | 1.72 µM (inactive) | 1.46 µM (inactive) | 1.56 µM (inactive) | 1.59 µM (inactive) | 1.84 µM (inactive) | 1.63 µM (inactive) | 1.64 µM (inactive) | 1.6 µM (inactive) | 1.95 µM (inactive) |  | 0.7 µM (active) |  |  |  | 1.77 µM (inactive) | 1.88 µM (inactive) | 1.86 µM (inactive) | 
N#CC(C#N)=c1ccc(=C2NCC3CCCN23)cc1 (configuration not stated) | > 100 µM (inactive) | > 100 µM (inactive) |  | > 100 µM (inactive) | > 100 µM (inactive) | > 100 µM (inactive) | > 100 µM (inactive) | > 100 µM (inactive) | > 100 µM (inactive) | > 100 µM (inactive) | > 100 µM (inactive) | > 100 µM (inactive) | > 100 µM (inactive) |  |  |  |  | > 100 µM (inactive) | > 100 µM (inactive) | > 100 µM (inactive)
Cc1ccnc2[nH]c3ccccc3c(=O)c12 | 41.2 µM (inactive) | 8.41 µM (inactive) | 28.8 µM (inactive) | 15.1 µM (inactive) | 13.1 µM (inactive) | 19.2 µM (inactive) | 25.2 µM (inactive) | 21.3 µM (inactive) | 29.6 µM (inactive) | 16.7 µM (inactive) |  | 10.1 µM (inactive) | > 10 µM (inactive) | 30.2 µM (inactive) | 16.3 µM (inactive) | 38.8 µM (inactive) | 23.7 µM (inactive) | 23.8 µM (inactive) | 18.9 µM (inactive) | 39.4 µM (inactive)
CCOC(=O)c1nc2cc(C(F)(F)F)ccc2nc1Oc1ccc(C#N)cc1 | > 100 µM (inactive) | > 100 µM (inactive) | > 100 µM (inactive) | 71.8 µM (inactive) | > 100 µM (inactive) | > 100 µM (inactive) | > 100 µM (inactive) | > 100 µM (inactive) | > 100 µM (inactive) | > 100 µM (inactive) |  | > 100 µM (inactive) | > 100 µM (inactive) | > 100 µM (inactive) | > 100 µM (inactive) | > 100 µM (inactive) | > 100 µM (inactive) | > 100 µM (inactive) | > 100 µM (inactive) | > 100 µM (inactive)
CCOC(=O)/C(C)=C(/O)C(=O)OCC | > 100 µM (inactive) | > 100 µM (inactive) | > 100 µM (inactive) | > 100 µM (inactive) | > 100 µM (inactive) | > 100 µM (inactive) | > 100 µM (inactive) | > 100 µM (inactive) | > 100 µM (inactive) | > 100 µM (inactive) | > 100 µM (inactive) | > 100 µM (inactive) | > 100 µM (inactive) |  |  |  | > 100 µM (inactive) | > 100 µM (inactive) | > 100 µM (inactive) | > 100 µM (inactive)
